Test results as given in ChEMBL document CHEMBL1944545, “Discovery of novel selective inhibitors for EGFR-T790M/L858R” (Bioorg Med Chem Lett, 2012).
pIC50: −log10 of the molar value.

Tests used:
[1] = target: Epidermal growth factor receptor (Homo sapiens, UniProt P00533); assay: Inhibition of wild-type EGFR expressed using baculovirus expression system by ELISA
A549 = assay: Antiproliferative activity against human A549 cells over-expressing EGFR gene after 72 hrs by SRB assay; type: functional, cell-based; details: A549, 72 h
A-431 = assay: Antiproliferative activity against human A431 cells over-expressing EGFR gene after 72 hrs by SRB assay; type: functional, cell-based; details: A-431, 72 h
NCI-H1975 = assay: Antiproliferative activity against human NCI-H1975 cells over-expressing EGFR mutant gene after 72 hrs by SRB assay; type: functional, cell-based; details: NCI-H1975, 72 h
[2] = target: Epidermal growth factor receptor (Homo sapiens, UniProt P00533, L858R/T790M); assay: Inhibition of EGFR T790M/L858R mutant expressed using baculovirus expression system by ELISA
Chain of Epidermal growth factor receptor (Homo sapiens, UniProt P00533, L858R/T790M) (P00533 25-1210 T790M/L858R limits assumed): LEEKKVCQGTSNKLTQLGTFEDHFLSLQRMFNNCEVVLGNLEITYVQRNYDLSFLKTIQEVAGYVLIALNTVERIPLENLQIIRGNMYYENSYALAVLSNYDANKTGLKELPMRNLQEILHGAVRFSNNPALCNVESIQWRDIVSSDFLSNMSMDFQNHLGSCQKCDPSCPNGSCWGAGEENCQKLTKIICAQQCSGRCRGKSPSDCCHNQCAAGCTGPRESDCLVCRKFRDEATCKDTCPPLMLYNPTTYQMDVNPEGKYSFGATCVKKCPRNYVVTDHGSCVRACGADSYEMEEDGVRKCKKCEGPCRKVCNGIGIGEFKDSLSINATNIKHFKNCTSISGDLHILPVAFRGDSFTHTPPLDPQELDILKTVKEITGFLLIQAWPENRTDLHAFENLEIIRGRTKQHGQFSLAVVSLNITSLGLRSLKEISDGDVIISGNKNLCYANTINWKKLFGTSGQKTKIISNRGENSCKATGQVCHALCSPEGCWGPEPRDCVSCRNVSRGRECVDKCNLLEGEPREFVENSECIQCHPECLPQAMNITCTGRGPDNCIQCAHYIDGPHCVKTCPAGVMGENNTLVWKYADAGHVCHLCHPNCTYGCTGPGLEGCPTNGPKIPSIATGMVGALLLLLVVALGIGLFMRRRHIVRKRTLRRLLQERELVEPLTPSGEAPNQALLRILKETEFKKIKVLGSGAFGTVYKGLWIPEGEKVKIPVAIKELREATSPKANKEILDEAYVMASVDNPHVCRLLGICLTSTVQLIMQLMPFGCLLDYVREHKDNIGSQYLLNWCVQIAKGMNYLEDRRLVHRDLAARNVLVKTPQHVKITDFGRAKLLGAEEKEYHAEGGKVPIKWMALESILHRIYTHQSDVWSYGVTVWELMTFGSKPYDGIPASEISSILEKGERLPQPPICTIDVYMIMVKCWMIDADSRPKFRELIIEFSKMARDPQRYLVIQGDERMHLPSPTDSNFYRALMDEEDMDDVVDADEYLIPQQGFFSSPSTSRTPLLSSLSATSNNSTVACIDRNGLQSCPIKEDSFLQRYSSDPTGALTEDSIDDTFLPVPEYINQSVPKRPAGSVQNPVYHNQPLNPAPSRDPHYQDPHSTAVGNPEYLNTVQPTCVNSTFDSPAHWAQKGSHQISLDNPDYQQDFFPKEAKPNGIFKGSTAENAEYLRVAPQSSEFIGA

Chain of Epidermal growth factor receptor (Homo sapiens, UniProt P00533) (P00533 whole entry): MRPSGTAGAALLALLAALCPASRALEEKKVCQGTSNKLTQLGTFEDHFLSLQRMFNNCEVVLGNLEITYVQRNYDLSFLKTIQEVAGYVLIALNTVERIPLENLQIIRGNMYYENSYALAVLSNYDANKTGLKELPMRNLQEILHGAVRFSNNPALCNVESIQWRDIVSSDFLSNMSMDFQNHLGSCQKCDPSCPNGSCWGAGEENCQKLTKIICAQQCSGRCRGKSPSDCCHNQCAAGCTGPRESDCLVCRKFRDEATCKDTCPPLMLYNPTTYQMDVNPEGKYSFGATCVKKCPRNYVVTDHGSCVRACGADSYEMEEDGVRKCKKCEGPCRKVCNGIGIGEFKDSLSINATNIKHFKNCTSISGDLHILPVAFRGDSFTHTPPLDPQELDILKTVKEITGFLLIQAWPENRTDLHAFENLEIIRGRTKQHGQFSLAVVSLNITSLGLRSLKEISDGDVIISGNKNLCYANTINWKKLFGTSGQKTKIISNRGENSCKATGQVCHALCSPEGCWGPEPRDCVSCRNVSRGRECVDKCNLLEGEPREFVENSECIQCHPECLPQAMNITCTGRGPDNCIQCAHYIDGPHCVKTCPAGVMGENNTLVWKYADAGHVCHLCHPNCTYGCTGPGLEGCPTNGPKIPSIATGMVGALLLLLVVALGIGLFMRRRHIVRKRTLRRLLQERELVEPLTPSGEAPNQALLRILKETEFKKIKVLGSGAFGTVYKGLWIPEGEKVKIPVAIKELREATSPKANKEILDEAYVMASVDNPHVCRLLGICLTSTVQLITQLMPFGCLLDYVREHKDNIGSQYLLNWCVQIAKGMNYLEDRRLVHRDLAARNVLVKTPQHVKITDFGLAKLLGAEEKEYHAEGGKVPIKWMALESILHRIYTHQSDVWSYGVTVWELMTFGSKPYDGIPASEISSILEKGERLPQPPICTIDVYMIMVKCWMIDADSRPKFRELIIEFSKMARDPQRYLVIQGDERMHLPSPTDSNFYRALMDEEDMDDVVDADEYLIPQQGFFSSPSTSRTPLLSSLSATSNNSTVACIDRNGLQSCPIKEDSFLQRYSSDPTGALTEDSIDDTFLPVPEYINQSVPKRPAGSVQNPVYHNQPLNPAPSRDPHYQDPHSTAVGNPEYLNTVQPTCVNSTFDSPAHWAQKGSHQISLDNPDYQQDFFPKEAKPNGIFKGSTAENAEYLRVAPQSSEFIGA

Structure (SMILES) | pIC50 [1] | pIC50 (A549) | pIC50 (A-431) | pIC50 (NCI-H1975) | pIC50 [2]
COc1ccc(Nc2nc(Cl)nc(NCc3ccco3)n2)cc1 | < 4.00 | < 4.00 | < 4.00 | < 4.00 | 4.68
Cc1ccc(-n2c(SCC(=O)Nc3ccccc3Cl)nc3sc(C)c(C)c3c2=O)cc1 | 4.09 | 4.03 | < 4.00 | 4.27 | < 4.00
Cn1cc(NC(=O)/C=N/O)c(=O)n1-c1ccccc1 | < 4.00 | < 4.00 | < 4.00 | < 4.00 | 5.05
COc1cccc2c1C(=O)c1c(O)ccc(O)c1C2=O | 5.37 | < 4.00 | 4.15 | 4.05 | 4.75
Cn1c2ccccc2n2c(=S)[nH]nc12 | < 4.00 | < 4.00 | < 4.00 | < 4.00 | 4.66
CC(=O)Nc1ccc(S(=O)(=O)Nc2nc3ccccc3nc2Nc2ccc(C(=O)O)cc2)cc1 | 4.45 | < 4.00 | < 4.00 | < 4.00 | 4.63
Cc1c(Cc2ccccc2)sc(NCC(=O)COc2ccc3ccccc3c2)c1C(N)=O | < 4.00 | 4.21 | 4.20 | 4.29 | 4.61
O=C(NNC(=O)c1ncc(Cc2ccsc2)s1)Nc1ccccc1 | < 4.00 | < 4.00 | < 4.00 | < 4.00 | 4.39
O=C(Nc1cccc(Br)c1)c1c(O)c2ccccc2[nH]c1=O | < 4.00 | < 4.00 | < 4.00 | < 4.00 | 4.25
CCc1ccc(C(=O)NNc2ccc(Cl)cc2C)cc1 | < 4.00 | < 4.00 | < 4.00 | < 4.00 | 4.18
COc1ccc2c3oc(=O)cc(O)c3c(=O)n(C)c2c1 | 4.12 | 4.14 | < 4.00 | < 4.00 | 4.19
C=CCn1c(N)c(C(=O)N/N=C/c2cccs2)sc1=S | < 4.00 | < 4.00 | < 4.00 | < 4.00 | 4.18
O=c1c2c(-c3ccccc3)c3c(nc2nc2[nH]nc(S)n12)-c1ccccc1CC3 | 4.07 | < 4.00 | < 4.00 | < 4.00 | < 4.00
CCOC(=O)c1ccc(NC(=O)CSc2nnc(CNc3ccc(OC)cc3)n2-c2ccccc2)cc1 | 4.03 | < 4.00 | 4.25 | < 4.00 | < 4.00
CN(C)c1nc(N/N=C/c2cc(Br)c(O)c(Br)c2O)nc(Nc2ccc(F)cc2)n1 | 4.59 | 5.11 | 5.10 | 4.98 | 5.19
O=C(CSc1nc(O)nc(-c2ccc(Cl)cc2)n1)Nc1ccc(Cl)cc1 | < 4.00 | 4.37 | < 4.00 | < 4.00 | 4.89
CNc1nc(N/N=C\c2ccc(OC)cc2)nc(Nc2ccccc2)n1 | < 4.00 | 4.11 | 4.25 | < 4.00 | 4.51
COc1nc(NCCN2CCOCC2)nc(Nc2ccc(Cl)cc2)n1 | < 4.00 | < 4.00 | < 4.00 | < 4.00 | 5.82
CNc1nc(N/N=C/c2ccc(O)cc2)nc(Nc2ccccc2)n1 | < 4.00 | < 4.00 | 4.33 | < 4.00 | 4.51
COc1cccc(Nc2ccnc(Nc3cccc(OC)c3)n2)c1 | 5.11 | 5.47 | 6.10 | 5.39 | 4.44
COc1ccccc1Nc1ccnc(Nc2ccccc2OC)n1 | 4.04 | 4.29 | 4.45 | 4.42 | < 4.00
C=CC(=O)Nc1ccc2ncnc(Nc3ccc(OCc4cccc(F)c4)c(Cl)c3)c2c1 [ALLITINIB] |  | 5.17 | 6.70 | 6.15 | 
